Data on 77 molecules can be found in US20230009608A1, “GRK2 INHIBITORS AND USES THEREOF” (Cygnal Therapeutics, Inc., priority 2020, published 2023).

In this experiment the test system is PAXF1657 control empty vector cell line. Kind of experiment: 7-day proliferation assay, PAXF1657 control empty vector cell line (Example 9). It counts as cell-based. Particulars: 168 h; Cell Line: PAXF1657 empty vector (EV) cell line; 7-day; read-out: C: 7-day proliferation assay: IC50 GeoMean. How it is done: In order to identify compounds specific for GRK2, we generated two isogenic cell line pairs of the pancreatic cancer cell line PAXF1657, a pair of cells stably overexpressing GRK2 cDNA or the control empty vector and a cell line pair of PAXF1657 GRK2 knockout clonal cells versus non-targeting control clonal cells.
Proliferation Assay: Cellular anti-proliferative activity of compounds was assessed by using the pancreatic cancer cell line, PAXF1657, stably overexpressing GRK2 cDNA or the control empty vector, as well as the parental urinary bladder cancer cell line, 5637. In addition, we also took advantage of GRK2 knockout cell lines that were generated via CRISPR. Cell lines were seeded into tissue culture treated, white-walled, 96-well plates at a density of 500 cells/well in RPMI1640 media supplemented with 10% H.I. FBS and penicillin/streptomycin. Plates were incubated overnight at 37° C., 5% CO2 to allow cells to adhere to the wells. GRK2 inhibitors were added to the cells using a 10-point dilution series with a final concentration ranging from 30 μM-0.0002 μM in 0.3% DMSO. At the time of compound addition, a set of plates, that were not treated with compounds, were collected and cell viability was measured using CellTiter-Glo (Promega). CellTiter-Glo reagent was added to the designed plates and luminescence was measuring using a Biotek Synergy plate reader. The compound treated cells were incubated for 3 days at 37° C., 5% CO2. The media was then aspirated from each well and replaced with fresh media containing GRK2 inhibitors. The compound treated cells were then incubated for an additional 4 days at 37° C., 5% CO2. Cell viability was assessed and at end of the 7-day compound treatment by CellTiterGlo.

Take `Cn1c(CNc2cccc(C(=O)NCc3ccccc3C(F)(F)F)c2)nnc1-c1ccncn1`: the IC50 was 1.15 µM.
Consider `Cn1c(CNc2cccc(C(=O)NCc3cccc(CN4CCOCC4)c3)c2)nnc1-c1ccncn1`, for which the IC50 was over 10 µM.
As for `Cn1c(CNc2cccc(C(=O)NC3(c4cccnc4)CCC3)c2)nnc1-c1ccncn1`, the IC50 was over 10 µM.
As to `Cc1nc(CNC(=O)c2cccc(NCc3nnc(-c4ccncn4)n3C)c2)c[nH]1`, the IC50 was over 10 µM.
The value for `CCOc1ncccc1CNC(=O)c1cccc(NCc2nnc(-c3ccncn3)n2C)c1` was 3.61 µM; that for `C[C@H](NC(=O)c1cccc(NCc2nnc(-c3ccncn3)n2C)c1)c1ccccn1` was 2.58 µM.
Regarding `Cn1c(CNc2cccc(C(=O)NCc3cncs3)c2)nnc1-c1ccncn1`, the IC50 is over 10 µM.
The value for `Cc1cccc(CNC(=O)c2cccc(NCc3nnc(-c4ccncn4)n3C)c2)n1` was 3.92 µM.
Regarding `Cn1cc(C(C)(C)NC(=O)c2cccc(NCc3nnc(-c4ccncn4)n3C)c2)cn1`, the IC50 is over 10 µM.
Take `Cc1csc(C(C)(C)NC(=O)c2cccc(NCc3nnc(-c4ccncn4)n3C)c2)n1`: the IC50 is over 10 µM.
As for `CC[C@H](NC(=O)c1cccc(NCc2nnc(-c3ccncn3)n2C)c1)c1ccccn1`, the IC50 was over 10 µM.
The figure for `COCc1cccc(CNC(=O)c2cccc(NCc3nnc(-c4ccncn4)n3C)c2)c1` is 2.53 µM.
Turning to `Cn1c(CNc2cccc(C(=O)NCc3ccccc3-n3cncn3)c2)nnc1-c1ccncn1`, the IC50 was over 10 µM.
For the molecule `CCn1nc(C)c(CNC(=O)c2cccc(NCc3nnc(-c4ccncn4)n3C)c2)n1`, the IC50 worked out at 0.555 µM.
For `Cn1nccc1C(NC(=O)c1cccc(NCc2nnc(-c3ccncn3)n2C)c1)c1ccccc1` (centres unmarked), the IC50 is over 10 µM.
The figure for `CC(C)n1ncnc1CNC(=O)c1cccc(NCc2nnc(-c3ccncn3)n2C)c1` is over 10 µM; for `C[C@H](NC(=O)c1cccc(NCc2nnc(-c3ccncn3)n2C)c1)c1ncccc1F` it is 0.738 µM.
For `CC(C)n1nccc1CNC(=O)c1cccc(NCc2nnc(-c3ccncn3)n2C)c1`, the IC50 is over 10 µM.
Turning to `COc1ccccc1C1(NC(=O)c2cccc(NCc3nnc(-c4ccncn4)n3C)c2)CC1`, the IC50 is over 10 µM.
On to `Cn1c(CNc2cccc(C(=O)NCc3nc(C4CC4)cs3)c2)nnc1-c1ccncn1`, for which the IC50 amounted to 2.6 µM.
`CC(NC(=O)c1cccc(NCc2nnc(-c3ccncn3)n2C)c1)c1ccon1` (centres unmarked): the IC50 was over 10 µM.
Take `Cn1c(CNc2cccc(C(=O)NCc3cncc(F)c3)c2)nnc1-c1ccncn1`: the IC50 is over 10 µM.
`CCN(CC)Cc1ccccc1CNC(=O)c1cccc(NCc2nnc(-c3ccncn3)n2C)c1`: the IC50 is over 10 µM.
For the molecule `CC(C)C(NC(=O)c1cccc(NCc2nnc(-c3ccncn3)n2C)c1)c1nncn1C` (centres unmarked), the IC50 is over 10 µM.
The value for `CC(C)Oc1ncccc1CNC(=O)c1cccc(NCc2nnc(-c3ccncn3)n2C)c1` was 2.36 µM; that for `Cn1c(CNc2cccc(C(=O)NCc3ccn(C4CCCC4)n3)c2)nnc1-c1ccncn1` was over 10 µM.
In the case of `CC(C)Cn1nccc1CNC(=O)c1cccc(NCc2nnc(-c3ccncn3)n2C)c1`, the IC50 is 2.01 µM.
The figure for `Cn1c(CNc2cccc(C(=O)NCc3cc(C(C)(C)C)ccn3)c2)nnc1-c1ccncn1` is 2.67 µM.
With `COc1ccc(CNC(=O)c2cccc(NCc3nnc(-c4ccncn4)n3C)c2)nc1`, the IC50 was over 10 µM.
For `CCN(CC)C(=O)C(NC(=O)c1cccc(NCc2nnc(-c3ccncn3)n2C)c1)c1ccccc1` (centres unmarked), the IC50 was over 10 µM.
Regarding `Cn1c(CNc2cccc(C(=O)NCc3ccccn3)c2)nnc1-c1ccncn1`, the IC50 is over 10 µM.
As to `Cc1cc(CNC(=O)c2cccc(NCc3nnc(-c4ccncn4)n3C)c2)ccn1`, the IC50 was over 10 µM.
For the molecule `Cn1c(CNc2cccc(C(=O)NC3(c4ccccn4)CC3)c2)nnc1-c1ccncn1`, the IC50 stood at 2.03 µM.
For the molecule `CN1CCN(c2nccc(CNC(=O)c3cccc(NCc4nnc(-c5ccncn5)n4C)c3)n2)CC1`, the IC50 is over 10 µM.
Turning to `Cn1c(CNc2cccc(C(=O)NCc3ccc(Cn4cncn4)cc3)c2)nnc1-c1ccncn1`, the IC50 is over 10 µM.
Regarding `Cn1c(CNc2cccc(C(=O)NCc3cc4n(n3)CCCC4)c2)nnc1-c1ccncn1`, the IC50 is 2.21 µM.
In the case of `Cn1cc(C(NC(=O)c2cccc(NCc3nnc(-c4ccncn4)n3C)c2)c2ccc(F)cc2)cn1` (centres unmarked), the IC50 was over 10 µM.
Take `Cc1ncc(CNC(=O)c2cccc(NCc3nnc(-c4ccncn4)n3C)c2)s1`: the IC50 was over 10 µM.
Turning to `CCc1cc(CNC(=O)c2cccc(NCc3nnc(-c4ccncn4)n3C)c2)no1`, the IC50 turned out to be 3.55 µM.
As for `Cn1c(CNc2cccc(C(=O)NCc3nc4ccccc4o3)c2)nnc1-c1ccncn1`, the IC50 was over 10 µM.
In the case of `C[C@H](NC(=O)c1cccc(NCc2nnc(-c3ccncn3)n2C)c1)c1cnccn1`, the IC50 was determined as 1.51 µM.
The value for `Cn1c(CNc2cccc(C(=O)NC(c3ncccn3)C(C)(C)C)c2)nnc1-c1ccncn1` (centres unmarked) was over 10 µM.
As to `Cc1ccnc(C(C)NC(=O)c2cccc(NCc3nnc(-c4ccncn4)n3C)c2)n1` (centres unmarked), the IC50 was over 10 µM.
Turning to `C[C@H](NC(=O)c1cccc(NCc2nnc(-c3ccncn3)n2C)c1)c1ccnn1C`, the IC50 is over 10 µM.
The value for `COCC(C)(NC(=O)c1cccc(NCc2nnc(-c3ccncn3)n2C)c1)c1ccccc1` (centres unmarked) was 0.88 µM; that for `Cn1c(CNc2cccc(C(=O)NC(C)(C)c3ncccn3)c2)nnc1-c1ccncn1` was over 10 µM.
For the molecule `Cn1c(CNc2cccc(C(=O)NC3(c4ccccn4)CCC3)c2)nnc1-c1ccncn1`, the IC50 was over 10 µM.
On to `Cn1c(CNc2cccc(C(=O)NC3(c4ccc(F)cn4)CC3)c2)nnc1-c1ccncn1`, for which the IC50 stood at 0.291 µM.
As to `Cc1nc(C2(NC(=O)c3cccc(NCc4nnc(-c5ccncn5)n4C)c3)CC2)cs1`, the IC50 worked out at 4.74 µM.
Turning to `Cn1c(CNc2cccc(C(=O)NCc3nncn3C3CC3)c2)nnc1-c1ccncn1`, the IC50 is over 10 µM.
Consider `Cn1c(CNc2cccc(C(=O)NCc3cccc(C(F)(F)F)n3)c2)nnc1-c1ccncn1`, for which the IC50 stood at 1.86 µM.
Turning to `CCC(NC(=O)c1cccc(NCc2nnc(-c3ccncn3)n2C)c1)c1ncccn1` (centres unmarked), the IC50 was 5.39 µM.
Regarding `Cc1nc2n(n1)CCCC2NC(=O)c1cccc(NCc2nnc(-c3ccncn3)n2C)c1` (centres unmarked), the IC50 is over 10 µM.
Take `Cn1c(CNc2cccc(C(=O)N[C@H]3c4ccccc4CC[C@H]3O)c2)nnc1-c1ccncn1`: the IC50 was over 10 µM.
`Cn1c(CNc2cccc(C(=O)NC3CCCc4ncccc43)c2)nnc1-c1ccncn1` (centres unmarked): the IC50 was determined as 2.5 µM.
Take `CC1CC(NC(=O)c2cccc(NCc3nnc(-c4ccncn4)n3C)c2)c2ncnn21` (centres unmarked): the IC50 was over 10 µM.
`Cn1c(CNc2cccc(C(=O)N[C@H]3CCOc4c(F)cc(F)cc43)c2)nnc1-c1ccncn1`: the IC50 is over 10 µM.
Turning to `Cn1c(CNc2cccc(C(=O)NC(CO)c3cccc(F)c3)c2)nnc1-c1ccncn1` (centres unmarked), the IC50 amounted to 2.48 µM.
The figure for `CC(O)C(NC(=O)c1cccc(NCc2nnc(-c3ccncn3)n2C)c1)c1ccccc1` (centres unmarked) is 1.76 µM.
Consider `Cn1c(CNc2cccc(C(=O)NCc3ccc(-n4cncn4)cc3)c2)nnc1-c1ccncn1`, for which the IC50 was over 10 µM.
For `CC(NC(=O)c1cccc(NCc2nnc(-c3ccncn3)n2C)c1)c1nccn1-c1ccccc1` (centres unmarked), the IC50 was over 10 µM.
The value for `COc1cnccc1CNC(=O)c1cccc(NCc2nnc(-c3ccncn3)n2C)c1` was over 10 µM; that for `Cn1c(CNc2cccc(C(=O)NCc3ccncc3)c2)nnc1-c1ccncn1` was over 10 µM.
On to `CC(NC(=O)c1cccc(NCc2nnc(-c3ccncn3)n2C)c1)c1ccn[nH]1` (centres unmarked), for which the IC50 was over 10 µM.
As to `Cn1c(CNc2cccc(C(=O)NCc3ccc4c(c3)CNC4=O)c2)nnc1-c1ccncn1`, the IC50 is over 10 µM.
As for `CNc1cc(CNC(=O)c2cccc(NCc3nnc(-c4ccncc4)[nH]3)c2)ccn1`, the IC50 is over 10 µM.
For the molecule `Cn1c(CNC(=O)c2cccc(NCc3nnc(-c4ccncc4)[nH]3)c2)nnc1C1CC1`, the IC50 was over 10 µM.
`CC(C)n1ncnc1CNC(=O)c1cccc(NCc2nnc(-c3ccncc3)[nH]2)c1`: the IC50 is over 10 µM.
Turning to `O=C(NCc1nccn1CC(F)(F)F)c1cccc(NCc2nnc(-c3ccncc3)[nH]2)c1`, the IC50 is over 10 µM.
In the case of `O=C(NC1(c2cccnc2)CC1)c1cccc(NCc2nnc(-c3ccncc3)[nH]2)c1`, the IC50 was over 10 µM.
With `O=C(NCc1nnc2n1CCCCC2)c1cccc(NCc2nnc(-c3ccncc3)[nH]2)c1`, the IC50 is over 10 µM.
For the molecule `O=C(NC1(c2ccncc2)CC1)c1cccc(NCc2nnc(-c3ccncc3)[nH]2)c1`, the IC50 is over 10 µM.
The value for `O=C(NCCc1ncccn1)c1cccc(NCc2nnc(-c3ccncc3)[nH]2)c1` was over 10 µM; that for `COc1ccc2c(c1)OCC[C@@H]2NC(=O)c1cccc(NCc2nnc(-c3ccncn3)n2C)c1` was 10.1 µM.
Take `COc1ccccc1[C@@H](NC(=O)c1cccc(NCc2nnc(-c3ccncn3)n2C)c1)c1nccn1C`: the IC50 is 78.2 µM.
As for `[2H]C([2H])(Nc1cccc(C(=O)N[C@@H]2COCc3ccccc32)c1)c1nnc(-c2ccncn2)n1C`, the IC50 amounted to 0.116 µM.
Regarding `[2H]C([2H])(Nc1cccc(C(=O)N[C@@H]2CCOc3cccnc32)c1)c1nnc(-c2ccncn2)n1C`, the IC50 is 0.274 µM.
